Laboratory results as given in patent US5401769A, “Dibenzofuranyl N-alkyl carbamates” (priority 1994, dated 1995).

Experiments:
[1] = target: T1, cholesterol ester hydrolase (CEH) / cholesterol esterase (EC 3.1.1.13) (Bos taurus, UniProt P30122); assay: In vitro inhibition of cholesteryl ester formation by cholesterol esterase (CEH); assay type: biochemical, bovine
T1 construct: purchased Sigma Company, St. Louis, Mo., U.S.A. C-1892; host or cells: bovine pancreas
T1 sequence (P30122 19-597): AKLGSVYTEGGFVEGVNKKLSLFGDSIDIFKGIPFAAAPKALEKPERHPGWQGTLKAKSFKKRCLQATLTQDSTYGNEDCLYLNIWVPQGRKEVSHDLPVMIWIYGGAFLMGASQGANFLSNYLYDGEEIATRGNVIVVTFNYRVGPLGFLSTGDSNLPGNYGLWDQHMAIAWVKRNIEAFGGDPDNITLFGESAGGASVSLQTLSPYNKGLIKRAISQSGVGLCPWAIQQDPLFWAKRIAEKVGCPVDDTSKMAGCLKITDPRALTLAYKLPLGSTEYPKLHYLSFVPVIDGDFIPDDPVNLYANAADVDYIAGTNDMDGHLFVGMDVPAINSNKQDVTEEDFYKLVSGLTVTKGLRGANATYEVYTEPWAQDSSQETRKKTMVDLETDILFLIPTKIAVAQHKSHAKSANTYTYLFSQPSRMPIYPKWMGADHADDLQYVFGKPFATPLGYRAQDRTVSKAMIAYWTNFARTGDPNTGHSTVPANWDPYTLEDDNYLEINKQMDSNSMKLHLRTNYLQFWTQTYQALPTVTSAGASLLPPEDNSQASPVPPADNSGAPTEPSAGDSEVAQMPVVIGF
Text: (§1) The in vitro and in vivo standard experimental test procedures used to establish the ability of the anticholesterolemic compounds of this invention to prevent cholesteryl ester formation and to inhibit cholesterol absorption, are given below and the biological results are presented in Table I.
In Vitro Test Procedure: The ability of the compounds of this invention to inhibit the formation of cholesteryl esters and thereby interfere with and prevent assimilation of cholesterol into the lymphatic system and ultimately the blood stream was established by incubating the compounds at 37° C. with a mixture of cholesterol and oleic acid in the presence of buffered cholesterol esterase [(EC 3.1.1.13) Sigma Company, St. Louis, Mo., U.S.A., No. C-1892, from bovine pancreas] and measuring the amount of ester formed, according to the procedure of Field, J. of Lipid Research, 25, 389 (1984).

[2] = system: absorption of 14C-cholesterol; assay: In vivo cholesterol absorption, [4-14C] cholesterol, serum radioactivity at six hours, normal rats; details: 10 mg/kg oral, 6 hr, normal rat, percent decrease compared to control
Procedure: as §1
In Vivo Assay: The in vivo cholesterol absorption studies were conducted in normal rats by oral administration of the compound being tested in propylene glycol and olive oil followed by oral administration of [4-^14 C] cholesterol in propylene glycol and olive oil, otherwise following the procedure of Cayen et al., J. Lipid Res. 20, 162 (1979). The serum radioactivity was measured at six hours after dosing. The results of this study are reported in the following Table I as percent decrease compared to control.

Row | Compound | IC50 [1] | In Vivo Results Effect on Absorption of 14C-chol, % Decrease [2] | IC25 ([1]; IC25 printed in the IC50 column, 37° C., cholesterol and oleic acid, cholesterol esterase from bovine pancreas)
1 | CCCCNC(=O)Oc1ccc2oc3ccccc3c2c1 [Example 1, Butylcarbamic acid 2-dibenzofuranyl ester] | 25 µM | – | –
2 | CC(C)CCCC(C)NC(=O)Oc1ccc2oc3ccccc3c2c1 (centres unmarked) [Example 2, (1.5-Dimethylhexyl) carbamic acid 2-dibenzofuranyl ester] | 3 µM | 33% | –
3 | CCCCCCNC(=O)Oc1ccc2oc3ccccc3c2c1 [Example 3, Hexylcarbamic acid 2-dibenzofuranyl ester] | 9.3 µM | 37% | –
4 | O=C(NCCCCc1ccccc1)Oc1ccc2oc3ccccc3c2c1 [Example 4, (4-Phenylbutyl)carbamic acid 2-dibenzofuranyl ester] | 68 µM | 44% | –
5 | CNC(=O)Oc1ccc2oc3ccccc3c2c1 [Example 5, Methylcarbamic acid 2-dibenzofuranyl ester] | 42 µM | – | –
6 | O=C(NCC1CCCCC1)Oc1ccc2oc3ccccc3c2c1 [Example 6, (Cyclohexylmethyl)carbamic acid 2-dibenzofuranyl ester] | 13.8 µM | 43% | –
7 | CCCCCCCCCCCCNC(=O)Oc1ccc2oc3ccccc3c2c1 [Example 7, Dodecylcarbamic acid 2-dibenzofuranyl ester] | – | 13% | 7.2 µM
8 | CCNC(=O)Oc1ccc2oc3ccccc3c2c1 [Example 8, Ethylcarbamic acid 2-dibenzofuranyl ester] | 18.9 µM | 18% | –
